Measured values: EP1081131A1 (priority 1998, dated 1999)

Columns and labels:
[1] = Acute toxicity on mice (per os); conditions: mouse, in vivo, white mice, per os in 0.5% solution of starch for 5 days; for LD50 at 5 days: oral; for LD50: po
Description: A study of acute toxicity was carried out according to a standard method on white mice. The animals received the preparation per os in a 0.5% solution of starch for 5 days.

[2] = Carrying of cations from one aqueous phase to another through a layer of nonpolar organic solvent (lipophil membrane); format: physicochemical
Description: Purification of the prepared compounds is controlled by the TLC method. The meanings of Rf of the claimed compounds were determined using "Sorbfil" plates (Silicagel CTX-1A, UV) (Russia) or "Silufol- UV" plates (Czechoslovakia). The composition and structure of the new compounds were confirmed by element analysis (C,H,N,O analyzer of the Karlo Erba firm) and also IR (Specord-UV-.751R) and PMR spectroscopy (Tesla BS-597A, 100 MHz). An UZDN-2T ultrasound disperser at a frequency of 22 kHz was used to carry out the reaction with ultrasound action. The cation-carrying properties of the claimed compounds were studied in accordance with a generally accepted method, which consists of studying the carrying of a cation from one aqueous phase to another aqueous phase through a layer of a nonpolar organic solvent.

M. bovis = format: cell-based; conditions: Typical strain M. bovis
H37Rv = assay: Antimycobacterial activity in vitro, vertical diffusion on dense nutrient; format: cell-based, mycobacteria; conditions: Typical strain H37Rv
M.fortuirum = assay: as above; format: cell-based; conditions: Atypical strain M.fortuirum
M. smegmatis = assay: as above; format: cell-based; conditions: Atypical strain M. smegmatis
M. avium = assay: as above; format: cell-based; conditions: Atypical strain M. avium
E. coli = assay: Antibacterial activity in vitro, preparation in a cavity of nutrient agar; format: cell-based
Description: (§1) The antibacterial activity of the claimed compounds was studied with the method of seeding solutions of the preparation in a cavity. The test-microbe was put in a Petri dish containing a simple nutrient agar. The preparation in an amount of 0.02 ml in necessary concentrations was put in a cavity located in the middle of the Petri dish. The results were taken after 24-hour incubation in a thermostat at 37°C by determination of the zone of delay of growth of the microorganisms along the edges of the cavity.

Lactobacteria = assay: as above; format: cell-based; conditions: Table 7
Description: as §1

S. epidermides = assay: as above; format: cell-based; conditions: Table 7
Description: as §1

[3] = test system: Sensitive to streptomycin, rifamycin and isoniazid; assay: Bacteriostatic activity on patient strains (Table 4); format: cell-based, mycobacteria of tuberculosis; conditions: taken from patients, Central SRI of Tuberculosis RAMS 1997
S. aureus = assay: Antibacterial activity in vitro, preparation in a cavity of nutrient agar; format: cell-based; conditions: Table 6
Description: as §1

Candida Albicans = assay: as above; format: cell-based; conditions: Table 6
Description: as §1

P. vulgaris = assay: as above; format: cell-based; conditions: Table 6
Description: as §1

strain H37Rv = assay: Therapeutic action on infected guinea pigs; format: in vivo; conditions: for Average change in weight of pigs during test / Weight of lungs / Weight of spleen: 21 mg/kg (isoniazid equivalent dose), 5 times a week for 60 days

Compound	Antimycobacterial activity of claimed preparations in tests In vitro (H37Rv)	Antimycobacterial activity of claimed preparations in tests In vitro (M.fortuirum)	Antimycobacterial activity of claimed preparations in tests In vitro (M. avium)	Inhibiting level (E. coli; Table 7)	Inhibiting level (Lactobacteria)	Inhibiting level (S. epidermides)	other results
O=Cc1ccccc1OCCOCCOc1ccccc1C=O	–	–	–	–	–	–	LD50 at 5 days [1]: > 2000 mg/kg
1,5-Bis(2-phenyl hydrazonomethyl phenoxy)-3-oxapentane	–	–	–	–	–	–	Speed of carrying ([2]; Cation of metal Cu): 2.0 mol h^-1 10^-7; Speed of carrying ([2]; Cation of metal Fe): 60.0 mol h^-1 10^-7; Speed of carrying ([2]; Cation of metal K): 34.5 mol h^-1 10^-7; Speed of carrying ([2]; Cation of metal Na): 28.7 mol h^-1 10^-7
O=Cc1ccc(Cl)cc1OCCOc1cc(Cl)ccc1C=O [1,2-Bis(2-formyl-5-chlorphenoxy)-ethane]	0.4 µg/mL	25.0 µg/mL	25.0 µg/mL	–	–	–	Antimycobacterial activity of claimed preparations in tests In vitro (M. bovis): 0.4 µg/mL; Antimycobacterial activity of claimed preparations in tests In vitro (M. smegmatis): 6.3 to 12.5 µg/mL
COc1cc(C=NNC(=O)c2ccccc2)ccc1OCCOc1ccc(C=NNC(=O)c2ccccc2)cc1OC [1,2-Bis(2-methoxy-4-benzoyl hydrazonomethylphenoxy)-ethane]	–	–	–	>50 µg/mL	>50 µg/mL	>50 µg/mL	–
O=C(NN=Cc1c(OCCOc2ccc3ccccc3c2C=NNC(=O)c2ccccc2)ccc2ccccc12)c1ccccc1 [1,2-Bis[2(benzoyl hydrazonomethylnaphthoxy-2)]-ethane]	–	–	–	>50 µg/mL	>50 µg/mL	>50 µg/mL	–
O=C(NN=Cc1ccccc1OCCOCCOc1ccccc1C=NNC(=O)c1ccccc1)c1ccccc1 [1,5-Bis(2-benzoyl hydrazonomethylphenoxy)-3-oxapentane]	–	–	–	–	–	–	LD50 [1]: > 1000 mg/kg
O=C(NN=Cc1ccccc1OCCOCCOc1ccccc1C=NNC(=O)c1ccncc1)c1ccncc1 [1,5-Bis(2-isonicotinoyl hydrazonomethylphenoxy)-3-oxapentane]	0.01 µg/mL	12.5 µg/mL	25.0 µg/mL	–	–	–	Inhibiting level [3]: 0.58 µg/mL; Inhibiting level (E. coli; Table 6): >500 µg/mL; Inhibiting level (S. aureus): >500 µg/mL; Inhibiting level (Candida Albicans): >500 µg/mL; Inhibiting level (P. vulgaris): >500 µg/mL; Antimycobacterial activity of claimed preparations in tests In vitro (M. bovis): 0.01 µg/mL; Antimycobacterial activity of claimed preparations in tests In vitro (M. smegmatis): 12.5 µg/mL
O=Cc1ccccc1OCCOc1ccccc1C=O [1,8-Bis(2-formylphenoxy)-ethane]	–	–	–	>200 µg/mL	>200 µg/mL	>200 µg/mL	–
O=C(NN=Cc1ccccc1OCCOCCOCCOc1ccccc1C=NNC(=O)c1ccncc1)c1ccncc1 [1,8-bis(2-isonicotinoyl hydrazonomethylphenoxy)-3,6-dioxaoctane]	0.05 µg/mL	12.5 µg/mL	25.0 µg/mL	–	–	–	LD50 [1]: > 2000 mg/kg; Inhibiting level (E. coli; Table 6): >500 µg/mL; Inhibiting level (S. aureus): >500 µg/mL; Inhibiting level (Candida Albicans): >500 µg/mL; Inhibiting level (P. vulgaris): >500 µg/mL; Average change in weight of pigs during test (strain H37Rv): 148.80 ± 29.40 g; Weight of lungs (strain H37Rv): 4.90 ± 0.90 g; Weight of spleen (strain H37Rv): 8.98 ± 0.15 g; Antimycobacterial activity of claimed preparations in tests In vitro (M. smegmatis): 12.5 µg/mL
O=C(NN=Cc1ccccc1OCCCCOCCCCOc1ccccc1C=NNC(=O)c1cccnc1)c1cccnc1 [1,9-Bis(2-nicotinoyl hydrazonomethylphenoxy)-5-oxanonon]	–	–	–	>100 µg/mL	>100 µg/mL	>100 µg/mL	–
O=C(NN=Cc1ccccc1OCCOCCOCCOCCOc1ccccc1C=NNC(=O)c1ccncc1)c1ccncc1 [1.11-Bis(2-isonicotinoyl hydrazonomethylphenoxy)-3,6,9-trioxaundecane]	–	–	–	>50 µg/mL	>50 µg/mL	>50 µg/mL	–
C=CCSc1nc2ccc(NC(=O)c3ccccc3Cl)cc2s1 [Compound formula (II), 2-(allylthio)-6-(2-chlorobenzoylamino)benzothiazole, reference compound]	10.0 µg/mL	10.0 µg/mL	25.0 µg/mL	–	–	–	–
NNC(=O)c1ccncc1 [Isoniazid, hydrazide of isonicotinic acid, reference compound]	0.05 µg/mL	50.0 µg/mL	50.0 µg/mL	–	–	–	Inhibiting level [3]: 0.29 µg/mL; LD50 at 5 days [1]: 363 mg/kg; Antimycobacterial activity of claimed preparations in tests In vitro (M. bovis): 0.05 µg/mL; Average change in weight of pigs during test (strain H37Rv): 180.60 ± 18.80 g; Weight of lungs (strain H37Rv): 4.49 ± 0.80 g; Weight of spleen (strain H37Rv): 9.34 ± 0.30 g; tuberculosis changes after the end of the course of treatment (strain H37Rv; after 60 days of treatment): detected as morphological, not as bacteriological; Antimycobacterial activity of claimed preparations in tests In vitro (M. smegmatis): 50.0 µg/mL
O=C(NN=Cc1cccc(OCCOCCOCCOc2cccc(C=NNC(=O)c3cccnc3)c2)c1)c1cccnc1.[Ni] [[1,8-Bis(3-nicotinoyl hydrazonomethyl phenoxy)-3,6-dioxaoctanejnickel(II)]	–	–	–	>50 µg/mL	>50 µg/mL	>50 µg/mL	–
